Source: ChEMBL document CHEMBL1201862, “PubChem BioAssay data set” (2004)
Blank lines part the entries; values can stand above or below the molecule they belong to. Calls of active or inactive are those of the source.

What was measured:
[1] = system: HEK293; test: SAR Analysis of small molecule inhibitors of B-cell specific antigen receptor-induced NF-kB activation in a HEK-293T cell line using a luminescence assay - Set 2. [Related pubchem assays (depositor defined):AID435022, AID435025, AID489021]; assay type: functional, cell-based; settings: Homo sapiens
[2] = system: HEK293; test: cytotoxicity in HEK293T NF-kB-Luc cells, SAR follow-up, cytotoxicity control for NF-kB activator project, cell-based, resazurin fluorescence (AID 493251); assay type: functional; settings: Homo sapiens
[3] = system: Jurkat; test: SAR Analysis of small molecule inhibitors of […] specific antigen receptor-induced NF-kB activation in a Jurkat cell line using a luminescence assay - Set 3. [Related pubchem assays (depositor defined):AID435022, AID435025, AID465]; assay type: functional, cell-based; settings: Homo sapiens
[4] = biological target: Beta-adrenergic receptor kinase 1 (Homo sapiens, UniProt P25098); test: GRK2 inhibitors displacing RNA aptamer, dose response, biochemical, flow cytometry beads, FAM-aptamer, powder set 1 (AID 588720)
[5] = biological target: T1, Small ubiquitin-related modifier 1 (Homo sapiens, UniProt P63165); test: inhibitors of SUMO1 peptide binding, dose response, biochemical, fluorescence polarization, uHTS hits (AID 624382); assay type: functional; settings: read-out: IC50_Mean
[6] = biological target: Peroxisome proliferator-activated receptor gamma/Nuclear receptor corepressor 2 (Homo sapiens, UniProt P37231+Q9Y618); test: Counterscreen for NR2E3 inverse agonists: TR-FRET-based biochemical high throughput dose response assay to identify inverse agonists of the interaction between peroxisome proliferator-activated receptor gamma (PPARg) and nuclear receptor co-repressor 2 (NCOR2).; assay type: functional
[7] = biological target: T1, Small ubiquitin-related modifier 1; test: inhibitors of SUMO1 partner interactions, dose response, biochemical, FRET (AID 624383); assay type: functional; settings: read-out: IC50_Mean
[8] = biological target: Photoreceptor-specific nuclear receptor (Homo sapiens, UniProt Q9Y5X4); test: NR2E3 inverse agonists, dose response, biochemical, TR-FRET (AID 463256); assay type: functional
[9] = biological target: T2, Hexokinase-1 (Homo sapiens, UniProt P19367); test: HK1 enzyme inhibition by HKDC1 hits, SAR follow-up, selectivity assay for HKDC1 inhibitor project, biochemical, set 2, resazurin fluorescence coupled readout (AID 588356); assay type: functional
T2 sequence (P19367 whole entry): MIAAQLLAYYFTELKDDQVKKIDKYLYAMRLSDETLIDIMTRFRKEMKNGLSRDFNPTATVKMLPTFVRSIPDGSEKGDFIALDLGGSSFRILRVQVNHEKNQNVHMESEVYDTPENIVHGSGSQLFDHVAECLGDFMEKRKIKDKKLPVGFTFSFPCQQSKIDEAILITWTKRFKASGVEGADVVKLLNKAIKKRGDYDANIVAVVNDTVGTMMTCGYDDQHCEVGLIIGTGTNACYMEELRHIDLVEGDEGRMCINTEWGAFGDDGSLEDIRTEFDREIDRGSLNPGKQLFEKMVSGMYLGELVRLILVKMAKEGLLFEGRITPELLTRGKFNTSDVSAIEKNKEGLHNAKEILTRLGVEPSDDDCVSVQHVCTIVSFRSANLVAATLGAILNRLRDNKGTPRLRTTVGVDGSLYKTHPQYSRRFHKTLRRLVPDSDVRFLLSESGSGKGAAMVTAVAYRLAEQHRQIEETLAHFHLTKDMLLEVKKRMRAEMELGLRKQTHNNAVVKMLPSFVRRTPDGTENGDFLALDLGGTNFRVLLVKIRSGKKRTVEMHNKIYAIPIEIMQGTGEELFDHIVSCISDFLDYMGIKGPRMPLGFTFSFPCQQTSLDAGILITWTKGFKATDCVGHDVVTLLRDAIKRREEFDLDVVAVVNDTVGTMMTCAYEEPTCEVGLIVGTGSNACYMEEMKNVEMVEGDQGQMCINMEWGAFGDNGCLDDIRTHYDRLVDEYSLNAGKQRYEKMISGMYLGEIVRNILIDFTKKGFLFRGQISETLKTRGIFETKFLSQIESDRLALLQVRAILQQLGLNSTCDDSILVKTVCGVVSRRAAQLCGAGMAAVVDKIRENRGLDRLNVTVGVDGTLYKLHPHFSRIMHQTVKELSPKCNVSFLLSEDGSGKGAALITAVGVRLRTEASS

[10] = biological target: T3, Hexokinase HKDC1 (Homo sapiens, UniProt Q2TB90); test: HKDC1 hexokinase inhibitors, SAR follow-up, biochemical, set 2 (AID 588355); assay type: functional
T3 sequence (Q2TB90 whole entry): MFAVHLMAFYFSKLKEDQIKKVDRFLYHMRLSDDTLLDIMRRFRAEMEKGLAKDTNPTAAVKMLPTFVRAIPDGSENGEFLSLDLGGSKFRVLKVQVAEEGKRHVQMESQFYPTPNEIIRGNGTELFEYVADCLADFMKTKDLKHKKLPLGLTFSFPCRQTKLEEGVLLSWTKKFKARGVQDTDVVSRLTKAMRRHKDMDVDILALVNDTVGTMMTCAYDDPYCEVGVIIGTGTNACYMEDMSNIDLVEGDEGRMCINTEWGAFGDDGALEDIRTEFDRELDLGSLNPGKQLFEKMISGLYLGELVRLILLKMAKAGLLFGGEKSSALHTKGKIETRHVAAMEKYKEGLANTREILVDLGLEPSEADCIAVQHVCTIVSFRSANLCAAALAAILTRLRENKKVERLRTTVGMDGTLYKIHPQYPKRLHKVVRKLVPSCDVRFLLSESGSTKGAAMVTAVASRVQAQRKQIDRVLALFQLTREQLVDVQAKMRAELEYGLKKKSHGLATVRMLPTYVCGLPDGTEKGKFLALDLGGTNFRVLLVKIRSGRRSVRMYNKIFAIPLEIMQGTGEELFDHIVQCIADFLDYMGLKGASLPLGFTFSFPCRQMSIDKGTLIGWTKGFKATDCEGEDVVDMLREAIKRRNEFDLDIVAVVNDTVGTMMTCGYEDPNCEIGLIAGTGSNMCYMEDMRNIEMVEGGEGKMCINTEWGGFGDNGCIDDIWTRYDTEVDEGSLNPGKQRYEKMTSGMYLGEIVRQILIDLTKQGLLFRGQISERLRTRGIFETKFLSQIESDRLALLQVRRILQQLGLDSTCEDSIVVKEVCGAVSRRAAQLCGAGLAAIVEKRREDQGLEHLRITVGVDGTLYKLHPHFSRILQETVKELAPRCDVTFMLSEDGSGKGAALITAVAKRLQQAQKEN

T1 sequence (P63165 whole entry): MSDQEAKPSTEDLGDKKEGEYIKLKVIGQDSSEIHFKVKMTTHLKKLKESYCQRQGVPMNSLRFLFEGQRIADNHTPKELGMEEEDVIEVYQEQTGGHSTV
Photoreceptor-specific nuclear receptor, sequence (Q9Y5X4 whole entry): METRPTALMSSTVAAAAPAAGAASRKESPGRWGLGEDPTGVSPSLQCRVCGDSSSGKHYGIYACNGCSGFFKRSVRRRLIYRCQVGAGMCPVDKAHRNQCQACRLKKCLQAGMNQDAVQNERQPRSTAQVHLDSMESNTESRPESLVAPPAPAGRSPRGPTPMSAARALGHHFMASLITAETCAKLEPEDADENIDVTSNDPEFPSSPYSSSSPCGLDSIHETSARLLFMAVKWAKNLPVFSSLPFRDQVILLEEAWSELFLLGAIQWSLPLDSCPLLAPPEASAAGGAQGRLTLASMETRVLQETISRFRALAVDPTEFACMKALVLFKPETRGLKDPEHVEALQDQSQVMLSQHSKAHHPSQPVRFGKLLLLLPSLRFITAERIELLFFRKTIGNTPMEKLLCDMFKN
Peroxisome proliferator-activated receptor gamma/Nuclear receptor corepressor 2, sequence (P37231 whole entry): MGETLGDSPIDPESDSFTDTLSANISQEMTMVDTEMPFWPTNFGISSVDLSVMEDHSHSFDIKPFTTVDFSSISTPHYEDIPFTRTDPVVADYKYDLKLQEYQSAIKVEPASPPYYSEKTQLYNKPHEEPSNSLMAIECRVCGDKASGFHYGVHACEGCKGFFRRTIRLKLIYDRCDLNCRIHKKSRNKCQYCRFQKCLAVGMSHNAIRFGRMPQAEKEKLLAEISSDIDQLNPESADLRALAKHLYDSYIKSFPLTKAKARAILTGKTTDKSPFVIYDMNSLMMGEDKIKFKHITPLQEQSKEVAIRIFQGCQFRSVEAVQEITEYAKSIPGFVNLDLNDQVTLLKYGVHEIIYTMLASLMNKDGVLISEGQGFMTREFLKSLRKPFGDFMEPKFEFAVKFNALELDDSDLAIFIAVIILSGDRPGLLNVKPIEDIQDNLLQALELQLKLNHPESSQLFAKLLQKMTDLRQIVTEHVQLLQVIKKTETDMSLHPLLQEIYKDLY
Peroxisome proliferator-activated receptor gamma/Nuclear receptor corepressor 2, sequence (Q9Y618 whole entry): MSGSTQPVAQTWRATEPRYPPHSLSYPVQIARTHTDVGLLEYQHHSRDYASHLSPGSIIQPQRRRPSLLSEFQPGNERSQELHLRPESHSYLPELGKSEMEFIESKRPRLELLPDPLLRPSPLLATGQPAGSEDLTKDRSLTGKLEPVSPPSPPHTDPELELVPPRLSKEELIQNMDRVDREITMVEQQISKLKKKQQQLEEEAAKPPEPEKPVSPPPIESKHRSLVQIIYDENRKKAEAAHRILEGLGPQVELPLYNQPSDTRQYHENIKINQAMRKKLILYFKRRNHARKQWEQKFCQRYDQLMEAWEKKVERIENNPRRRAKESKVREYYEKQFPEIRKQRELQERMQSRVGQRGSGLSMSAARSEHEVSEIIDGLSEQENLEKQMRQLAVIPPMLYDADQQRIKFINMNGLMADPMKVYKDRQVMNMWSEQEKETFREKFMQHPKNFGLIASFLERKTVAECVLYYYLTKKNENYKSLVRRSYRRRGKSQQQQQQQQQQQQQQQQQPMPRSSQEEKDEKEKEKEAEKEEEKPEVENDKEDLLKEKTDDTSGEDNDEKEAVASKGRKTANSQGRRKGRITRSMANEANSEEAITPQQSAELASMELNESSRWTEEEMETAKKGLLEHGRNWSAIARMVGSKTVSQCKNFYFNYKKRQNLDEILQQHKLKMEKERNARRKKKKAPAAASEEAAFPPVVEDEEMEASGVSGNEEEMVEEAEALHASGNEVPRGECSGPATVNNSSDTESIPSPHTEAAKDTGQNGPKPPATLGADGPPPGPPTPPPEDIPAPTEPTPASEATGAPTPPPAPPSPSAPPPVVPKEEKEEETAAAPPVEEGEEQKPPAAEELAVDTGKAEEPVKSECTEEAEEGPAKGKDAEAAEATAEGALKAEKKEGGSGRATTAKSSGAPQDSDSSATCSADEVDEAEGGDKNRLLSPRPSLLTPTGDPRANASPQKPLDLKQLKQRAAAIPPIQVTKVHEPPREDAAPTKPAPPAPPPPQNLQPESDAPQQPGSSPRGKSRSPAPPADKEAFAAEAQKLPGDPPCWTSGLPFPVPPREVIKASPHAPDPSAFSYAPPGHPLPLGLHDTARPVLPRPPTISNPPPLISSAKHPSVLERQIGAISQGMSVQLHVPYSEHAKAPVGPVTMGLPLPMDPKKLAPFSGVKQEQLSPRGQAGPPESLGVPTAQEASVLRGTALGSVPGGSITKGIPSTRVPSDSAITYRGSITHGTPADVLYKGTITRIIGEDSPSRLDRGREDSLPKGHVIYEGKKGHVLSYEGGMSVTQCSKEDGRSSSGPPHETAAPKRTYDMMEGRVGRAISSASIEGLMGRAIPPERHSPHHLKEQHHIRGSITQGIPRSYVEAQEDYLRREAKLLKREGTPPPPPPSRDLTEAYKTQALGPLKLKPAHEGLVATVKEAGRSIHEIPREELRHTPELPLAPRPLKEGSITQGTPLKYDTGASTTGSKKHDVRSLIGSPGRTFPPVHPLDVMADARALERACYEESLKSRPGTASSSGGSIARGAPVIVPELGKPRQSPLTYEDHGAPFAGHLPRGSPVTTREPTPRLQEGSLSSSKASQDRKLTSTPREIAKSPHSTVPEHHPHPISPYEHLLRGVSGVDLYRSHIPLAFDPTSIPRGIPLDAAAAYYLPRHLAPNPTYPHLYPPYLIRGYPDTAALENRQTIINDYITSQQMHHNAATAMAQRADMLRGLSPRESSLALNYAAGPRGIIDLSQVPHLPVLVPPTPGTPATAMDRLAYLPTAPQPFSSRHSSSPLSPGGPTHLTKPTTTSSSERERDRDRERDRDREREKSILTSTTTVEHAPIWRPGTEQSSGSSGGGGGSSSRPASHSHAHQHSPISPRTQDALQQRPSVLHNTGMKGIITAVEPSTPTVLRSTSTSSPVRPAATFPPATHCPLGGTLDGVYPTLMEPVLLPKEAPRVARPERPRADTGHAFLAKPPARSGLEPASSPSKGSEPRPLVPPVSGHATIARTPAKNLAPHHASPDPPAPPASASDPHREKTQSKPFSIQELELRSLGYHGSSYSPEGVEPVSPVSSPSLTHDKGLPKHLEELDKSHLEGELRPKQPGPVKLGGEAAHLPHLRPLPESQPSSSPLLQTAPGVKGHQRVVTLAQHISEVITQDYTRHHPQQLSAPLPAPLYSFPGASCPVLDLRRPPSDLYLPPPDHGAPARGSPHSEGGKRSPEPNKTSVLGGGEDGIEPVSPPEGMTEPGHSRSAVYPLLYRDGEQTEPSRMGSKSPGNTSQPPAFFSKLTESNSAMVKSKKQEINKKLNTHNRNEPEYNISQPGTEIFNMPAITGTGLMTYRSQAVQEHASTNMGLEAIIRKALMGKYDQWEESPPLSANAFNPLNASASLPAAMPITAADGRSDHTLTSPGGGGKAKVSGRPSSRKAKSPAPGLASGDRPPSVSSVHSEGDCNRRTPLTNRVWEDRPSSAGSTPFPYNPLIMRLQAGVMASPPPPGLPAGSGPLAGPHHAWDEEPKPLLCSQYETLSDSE
Beta-adrenergic receptor kinase 1, sequence (P25098 whole entry): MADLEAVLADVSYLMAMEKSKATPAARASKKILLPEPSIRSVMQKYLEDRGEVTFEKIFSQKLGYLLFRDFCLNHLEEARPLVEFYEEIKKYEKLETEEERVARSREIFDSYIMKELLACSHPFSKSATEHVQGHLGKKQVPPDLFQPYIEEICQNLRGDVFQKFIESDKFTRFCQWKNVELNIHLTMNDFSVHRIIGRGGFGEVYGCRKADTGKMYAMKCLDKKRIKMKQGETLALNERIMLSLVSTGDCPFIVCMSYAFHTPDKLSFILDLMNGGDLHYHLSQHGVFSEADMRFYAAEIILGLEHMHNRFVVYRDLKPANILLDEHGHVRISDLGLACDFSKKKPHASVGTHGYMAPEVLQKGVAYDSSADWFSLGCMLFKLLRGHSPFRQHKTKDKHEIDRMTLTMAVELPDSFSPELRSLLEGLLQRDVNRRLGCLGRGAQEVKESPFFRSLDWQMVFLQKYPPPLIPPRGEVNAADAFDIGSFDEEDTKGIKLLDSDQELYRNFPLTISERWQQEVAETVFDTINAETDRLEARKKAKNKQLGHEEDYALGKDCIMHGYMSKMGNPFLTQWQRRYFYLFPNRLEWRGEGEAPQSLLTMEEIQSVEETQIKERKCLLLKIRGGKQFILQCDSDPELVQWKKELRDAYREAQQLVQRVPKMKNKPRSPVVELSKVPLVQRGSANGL

Structure (SMILES): CNC(=O)CCc1nc(-c2ccc(OC)cc2)no1
IC50 [1]: > 80 µM (inactive) | IC50 [2]: > 80 µM (inactive) | IC50 [3]: > 80 µM (inactive)

Structure (SMILES): CCOc1ccc(NC(=O)CCS(=O)(=O)c2ccc(Br)cc2)cc1
EC50 [4]: 0.277 µM (inactive) | IC50 [5]: > 66.6 µM (inactive) | IC50 [6]: 13.6 µM (not active) | IC50 [7]: 12.8 µM (active) | IC50 [8]: 8.87 µM (active)

IC50 [9]: > 80 µM (inactive) | IC50 [10]: > 80 µM (inactive)
Structure (SMILES): O=c1c2cc(Cl)ccc2nc(/C=C/c2cccnc2)n1Cc1ccccc1
